This note sets out measurements from patent US9497975B2, “Broad spectrum natural preservative composition” (The Trustees of Columbia University in the City of New York, priority 2011, dated 2016).

Molecules are shown by their SMILES.

One test relates to A. niger. In words: Efficacy of BA, THC and essential oils in anionic emulsion against A. niger, Example 2. It is filed as cell-based, Aspergillus niger. Conditions: essential oil 0.3% w/w alone or with BA 0.5% w/w and THC 0.05% w/w, incubation 48 hours, average of nine samples.
The next test concerns S. aureus. The experiment in a line: Antimicrobial activity of test formulations in cationic or anionic emulsion, Example 3. It counts as cell-based, Staphylococcus aureus. Conditions: incubated 48 hours. As to the method: (§1) A stock solution was prepared containing the active ingredients and was then diluted in either a cationic or anionic test formulation, where the cationic formulation tested was Formulation A described in Example 1 and the anionic formulation tested was Formulation B described in Example 1: […]
(§2) Test formulations comprising the synthetic preservative methylparaben, at a concentration of 0.3% w/w, was used as a positive control.
(§3) The following method of testing for antimicrobial activity was used. 25 gms of emulsion containing 1-1.2% of various preservative was prepared. 0.9 gm aliquots of preservative containing emulsions were dispensed into several culture tubes. These were divided into various groups and inoculated with 0.1 ml of the test organism (bacteria, Candida albicans (10^8 cfu/ml) or Aspergillus niger (10^7 cfu/ml)). After mixing, the tubes were incubated for 48 hours for bacteria and for 7 days days for either C. albicans or A. niger. The cultures were then diluted serially with Drug Neutralizing Fluid (DNF) and 0.5 ml aliquots were plated on TSA and incubated for 24-48 hours (bacteria and C. albicans were incubated at 37° C. and A. niger at 30° C.). […] The log 10 reduction in colony counts of the test group from the colony counts of control group was determined.

A further test has as its system P. aeruginosa. The description is as above. As to conditions: incubated 48 hours. It counts as cell-based, Pseudomonas aeruginosa. Here is the method:
as §1, §2, §3

The next test has as its system Aspergillus niger. Described as above. It is filed as cell-based. Conditions: incubated 7 days. Here is the method: as §1, §2
(§4) The following method of testing for antimicrobial activity was used. 25 gms of emulsion containing 1-1.2% of various preservative was prepared. 0.9 gm aliquots of preservative containing emulsions were dispensed into several culture tubes. These were divided into various groups and inoculated with 0.1 ml of the test organism (bacteria, Candida albicans (10^8 cfu/ml) or Aspergillus niger (10^7 cfu/ml)). After mixing, the tubes were incubated for 48 hours for bacteria and for 7 days days for either C. albicans or A. niger. The cultures were then diluted serially with Drug Neutralizing Fluid (DNF) and 0.5 ml aliquots were plated on TSA and incubated for 24-48 hours (bacteria and C. albicans were incubated at 37° C. and A. niger at 30° C.). In the control group, the emulsion base without the preservatives was inoculated with each organism and processed similarly. The log 10 reduction in colony counts of the test group from the colony counts of control group was determined.

Another test deals with Candida albicans. The description is as above. Conditions: incubated 7 days. It is filed as cell-based. As to the method:
as §1, §2, §4

Where [1] appears, read: anionic emulsion (Formulation B).
Setting [2] is: cationic emulsion (Formulation A).

Protocol for A. niger: 0.9 gm aliquots of preservative containing emulsions were dispensed into several culture tubes. These were divided into various groups and inoculated with 0.1 ml of the test organism (bacteria, Candida albicans (10^8 cfu/ml) or Aspergillus niger (10^7 cfu/ml). After mixing, the tubes were incubated for 48 hours for bacteria t days for either C. albicans or A. niger. The cultures were then diluted serially with Drug Neutralizing Fluid (DNF) and 0.5 ml aliquots were plated on TSA and incubated for 24-48 hours (bacteria and C. albicans were incubated at 37° C. and A. niger at 30° C.). In the control group, the emulsion base without the preservatives was inoculated with each organism and processed similarly.
Various essential oils were used along with BA and THC and incorporated in anionic emulsion and tested against A. niger.

Consider `Cc1ccc(C(C)C)c(O)c1` [TH, Thymol], for which, in the test with A. niger, the “log10 reduction in cfu, A. niger” value is 0.8 log10.

For the compound `COC(=O)c1ccc(O)cc1` [methyl paraben, methylparaben], the results for the “log reduction from control growth, S. aureus” value in the test with S. aureus (setting [1]) and in the test with S. aureus (setting [2]) were 0.12 log10 and 1.9 log10, respectively. For the same compound, the “log reduction from control growth, P. aeruginosa” value in the test with P. aeruginosa (setting [1]) turned out to be 0.11 log10; in the test with P. aeruginosa (setting [2]), 2.1 log10. Further, the “log reduction from control growth, A. niger” value in the test on Aspergillus niger (setting [1]) was determined as 2.88 log10; in the test on Aspergillus niger (setting [2]), 4.16 log10. Besides, the entries for the “log reduction from control growth, C. albicans” value in the test with Candida albicans (setting [1]) and in the test on Candida albicans (setting [2]) were 4.31 log10 and 4.25 log10, respectively.
